Each structure is given as a SMILES string.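 Grown in 96-well plates, cells were treated for 48 hours with each compound at five concentrations. Insufficient inhibition: endpoint recorded as highest concentration tested. TGI: total growth inhibition.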

Drawing on PubChem BioAssay (NCI), this text covers TGI for 14 molecules.

Test in all cases: DTP human tumour cell line panel, 48 h
The test system of assay [1] is BT-549 breast.
Assay [2] deals with NCI-H460 lung.
The test system of assay [3] is HCC-2998 colon.
Assay [4] deals with MCF7 breast.
For assay [5], the system named is SR leukemia.
Assay [6] concerns PC-3 prostate.
Assay [7] has as its system HL-60(TB) leukemia.
In assay [8] the test system is M14 melanoma.
Assay [9] has as its system MDA-MB-231 breast.
The test system of assay [10] is HCT-15 colon.

For `COC(=O)C1=C(C(=O)OC)SC2(S1)C(C(=O)OC)=C(C(=O)OC)Sc1c2ssc1=Nc1ccc(Cl)cc1`, the TGI stood at 5.11 µM in assay [1]; 1.37 µM in assay [2]; 1.02 µM in assay [3]; 2.42 µM in [4]; 1.73 µM in assay [5]; 1.71 µM in [6]. Moreover, the figures for the TGI in [7], in assay [8] and in assay [9] were 6.74 µM, 2.79 µM and 2.17 µM, respectively.
As for `O=C1C=CC(=O)c2c1ccc1c3ccccc3n(-c3ccccc3[N+](=O)[O-])c21`, the TGI in assay [1] is 14.6 µM; in assay [2], above 100 µM; in [3] it was 13.2 µM; in [4] it was 20 µM; in [5] it was above 100 µM; in assay [10], 9 µM. Further, the TGI was 12.4 µM in [6], 4.58 µM in assay [8] and 7.88 µM in [9].
In the case of `O=C(c1ccc(Cl)cc1)N(C(=S)OCc1ccccn1)c1ccccc1`, the concentration for total growth inhibition (TGI) in [1], in assay [4], in assay [5], in [10], in [6] and in assay [7] was above 100 µM each time. Further, the TGI in assay [8] and in assay [9] was above 100 µM in each case.
`c1ccc2c(c1)CCc1[nH]c3c(c1-2)-c1ccccc1CC3`: the concentration for total growth inhibition (TGI) in [1], in [2], in assay [3], in assay [4], in [5] and in [10] was above 100 µM in each case. The concentration for total growth inhibition (TGI) in [6], in assay [7], in assay [8] and in assay [9] was above 100 µM in each case.
Turning to `COc1ccc(C(=O)/C=C/c2ccc(OCCSCCCCCCCCCCSCCOc3ccc(/C=C/C(=O)c4ccc(OC)c(OC)c4)cc3)cc2)cc1OC`, the TGI in [1], in assay [2], in assay [3], in [4], in [5] and in [10] was above 100 µM throughout. The TGI in assay [6], in [7], in [8] and in assay [9] was above 100 µM each time.
Turning to `CCOC(=O)c1[nH]cc(C)c1-c1ccc2c(-c3ccccc3)nc3ccccc3n12`, the total growth inhibition concentration (TGI) in [1] was found to be 17.4 µM; in assay [2], 12 µM; in [3], 9.97 µM; in [4], 14.3 µM; in [5], 5.34 µM; in assay [10] it was 13.7 µM. In addition, the TGI was 12.8 µM in [6], 27.5 µM in [8] and 12.8 µM in assay [9].
On to `CC1CCC2(CC1)NC1=C(CC(C)CC1)C1=C2CC(C)CC1` (stereo not drawn), for which the TGI in assay [1] was found to be 38.4 µM; in assay [2], 75.7 µM; in assay [3], 45.1 µM; in assay [4] it was 34.5 µM; in assay [5], 55.8 µM; in [10], 45.9 µM. The concentration for total growth inhibition (TGI) in assay [6] is 47.9 µM; in [7] it was 35.9 µM; in [8], 40.6 µM; in [9], 53.9 µM.
On to `C/C(=N\Nc1nc2cccnc2s1)c1ccccn1`, for which the TGI in assay [1] is 15.9 µM; in assay [2], above 100 µM; in assay [3] it was 3.18 µM; in assay [4], above 54.8 µM; in [5], above 100 µM; in [10], 21.5 µM. In addition, the TGI in assay [6] is 30.6 µM; in assay [7] it was above 100 µM; in assay [9], 38.6 µM.
As to `CCOP(=O)(OCC)/C(C#N)=C/c1cnc[nH]1`, the TGI in [1], in assay [2], in assay [3], in assay [4], in [5] and in assay [10] was above 100 µM each time. In addition, the TGI in [6], in assay [7], in [8] and in assay [9] was above 100 µM in each case.
As to `CCOc1cc2oc(C)cc(=O)c2c(OC)c1C=Nc1ccc(Cn2c(C)nc3ccccc32)cc1`, the total growth inhibition concentration (TGI) in [1], in assay [2], in assay [3], in assay [4], in assay [5] and in assay [10] was above 100 µM in each case. In addition, the TGI in assay [6], in assay [7], in [8] and in [9] was above 100 µM throughout.
Take `CC(=O)C1=C(C)N(c2ccc(C)cc2)C2(O)C3=C(C(=O)c4ccccc4C3=O)C(O)=CC12Cl` (stereo not drawn): the TGI was 45.9 µM in assay [1]; above 100 µM in assay [2]; 31.6 µM in [3]; above 100 µM in [4]; above 100 µM in [5]; above 100 µM in assay [10]. The total growth inhibition concentration (TGI) in assay [6], in [7], in assay [8] and in [9] was above 100 µM in each case.
For `COc1cc2c(cc1OCCCCOc1cc3c(cc1OC)C(=O)N1CCC[C@H]1C(=O)N3)N=C[C@@H]1CCCN1C2=O`, the TGI in assay [1] is 16.8 µM; in assay [2], 43.9 µM; in assay [3], 26.3 µM; in assay [4], 18.1 µM; in assay [5], 4.59 µM; in assay [10], 24.6 µM. The TGI was 19.4 µM in [6], 37.3 µM in [7], 33 µM in [8] and 8.7 µM in assay [9].
With `CCN(CC)CCNc1ccc2nnn3c4ccc(O)cc4c(=O)c1c23`, the total growth inhibition concentration (TGI) in [1] was 25.5 µM; in assay [2], 4.64 µM; in assay [3], 15.4 µM; in assay [4], 28.1 µM; in assay [5], 1.48 µM; in assay [10], 17.6 µM. In addition, the TGI in [6] was 16.9 µM; in assay [7], 25.1 µM; in assay [8], 20.1 µM; in assay [9] it was 18.2 µM.
In the case of `CCOC1Oc2ccccc2-c2nc(SC)ncc21` (stereo not drawn), the concentration for total growth inhibition (TGI) in [1], in assay [2], in [4], in [5], in assay [10] and in assay [6] was above 100 µM throughout. Further, the TGI in [7], in assay [8] and in [9] was above 100 µM in each case.
